SMILES strings stand for the structures.

The assay is described as follows: YAP Reporter Assay: HEK293T cells stably transfected with 8XTBD luciferase reporter and pRLTK in 384-well plates were treated with the test compounds, starting from 3 μM (final concentration in assay plate), 1:3 dilution, and 10 points in quadruplicates. Post 24-hr incubation with compounds at 37° C. and 5% CO2, cells were lysed and 8XTBD-driven firefly luciferase and control TK-driven renilla luciferase activities were measured using Promega Dual-Luciferase Reporter Assay System.Reagents: The reagents used for this study are: DMEM: Invitrogen #11960077, Dual-Glo Luciferase Assay System: Promega-E2980, Puromycin Dihydrochloride: Invitrogen-A1113803, 384-well plate: PerkinElmer-6007480, L-GLUTAMINE: Invitrogen-25030164, Hygromycin B: Invitrogen-10687010, and Penicillin-Streptomycin: Merk-TMS-AB2-CMedia: The media used for this assay were: Culture Medium: DMEM+1 ug/mL puromycin+200 ug/mL hygromycin (with 10% FBS+1 mM L-glutamine); and Assay Medium: DMEM (with 10% FBS+1 mM L-glutamine+1× P/S).Cell Plating: The appropriate media was warmed at 37° C. by water bath: Culture Medium, Assay Medium, 1*D-PBS, 0.05% trypsin-EDTA. The cells were trypsinized after removing all media, then washed with 1*sterile D-PBS and then with 2 ml 0.05% trypsin-EDTA. The cells were then incubated at RT for one minute. Then 10 ml/75 cm2 flask Assay Medium was added to each flask. Using a 10 ml pipette, the cells were then gently resuspended in the media, until the clumps completely disappeared. The cells were then transferred into 50 ml centrifuge tubes and were centrifuged at 800 rpm for 5 mins. The medium was removed and the cells were resuspended with Assay Medium. An aliquot of cells was used to count the cell density (cells/nil). The cell suspension was then diluted with Assay Medium to a concentration of 6×10^4 cells/ml. 50 ul cells suspension was then plated to 384-well plate (PerkinElmer-6007480), 3×10^3 cells/well and the cells were incubated in an incubator at 37° C., 5% CO2.Compound Treatment: In the afternoon (incubation of the plate with 3-4 hrs), the test compounds were added by Echo, starting from 3 uM (final concentration in the assay plate), 1:3 dilution, 10 points, quadruplicates. The plate was placed at 37° C., 5% CO2 incubator for 24 hrs.Detection: The Dual-Glo Luciferase Reagent was prepared by transferring the contents of one bottle of Dual-Glo Luciferase Buffer to one bottle of Dual-Glo Luciferase Substrate to create the Dual-Glo Luciferase Reagent. Mixing was performed by inversion until the substrate was thoroughly dissolved. After mixing, the reagent was aliquoted into 15 ml tubes. In the afternoon (24 hrs post compound treatment), the DMEM+ medium in the 384 well plates were aspirated by Microplate Washer.Measuring firefly luciferase activity: 20 ul Dual-Glo Luciferase Reagent was added to the 384-well plates. The plates were protected from light to prevent interference with the assay. The plates were shaken for 1 min followed centrifuging plates at 1000 rpm for 30 seconds. After waiting at least 10 minutes, the firefly luminescence was measured by Envision.Measuring renilla luciferase activity: 20 ul Stop-Glo Reagent was added to the 384-well plates. The plates were shaken for lmin and then centrifuged at 1000 rpm for 30 seconds. After waiting at least 10 minutes, the renilla luminescence was measured by Envision. The following applies: HEK-293T, 24 h. (In general: Reporter assays use an easily measured gene product as a stand-in for the process of interest.)
Usually IC50 stands for the point on the concentration scale where inhibition reaches its midpoint. As to `NCC(CO)n1nnc(-c2ccccc2Nc2ccc(C(F)(F)F)cc2)n1` (stereo not given), the half-maximal inhibitory concentration (IC50) result is “in the range around 550 nM”.

For the compound `OCCn1nnc(-c2ccccc2Nc2ccc(Cl)c(Cl)c2)n1`, the 50% inhibitory concentration (IC50) result was “in the range around 550 nM”.

Regarding `OCCn1nnc(-c2cc(C3CC3)ccc2Nc2ccc(C(F)(F)F)cc2)n1`, the IC50 was below 100 nM.

Take `OCCn1nnc(-c2ccccc2Nc2cc(Cl)c(Cl)c(Cl)c2)n1`: the half-maximal inhibitory concentration (IC50) entry is “in the range around 3000 nM”.

`OCCn1nnc(-c2ccccc2Nc2ccc(C(F)(F)F)c(Cl)c2)n1`: the half-inhibitory concentration (IC50) was below 100 nM.

For `OCCn1nnc(-c2cc(OC(F)(F)F)ccc2Nc2ccc(C(F)(F)F)cc2)n1`, the half-maximal inhibitory concentration (IC50) result was “in the range around 550 nM”.

With `CCc1ccc(Nc2ccc(C(F)(F)F)cc2)c(-c2nnn(CCO)n2)c1`, the IC50 is below 100 nM.

On to `OCC(CO)n1nnc(-c2ccccc2Nc2ccc(C(F)(F)F)cc2)n1`, for which the IC50 is below 100 nM.

Turning to `OCCn1nnc(-c2cc(OC(F)F)ccc2Nc2ccc(C(F)(F)F)cc2)n1`, the concentration for half-maximal inhibition (IC50) was below 100 nM.

For `OCCn1nnc(-c2cc(C(F)(F)F)ccc2Nc2ccc(C(F)(F)F)cc2)n1`, the IC50 result was “in the range around 550 nM”.

In the case of `OCCn1nnc(-c2ccccc2Nc2cccc(Cl)c2)n1`, the IC50 entry was “in the range around 3000 nM”.

Regarding `OCCn1nnc(-c2ccccc2Nc2ccc(SC(F)(F)F)cc2)n1`, the IC50 result was “in the range around 550 nM”.

On to `FC(F)(F)c1ccc(Nc2ccccc2-c2nnn(C3COCOC3)n2)cc1`, for which the IC50 is below 100 nM.

On to `OCCn1nnc(-c2cc(C(F)F)ccc2Nc2ccc(C(F)(F)F)cc2)n1`, for which the IC50 entry was “in the range around 550 nM”.

For `OCCn1nnc(-c2cc(Br)ccc2Nc2ccc(C(F)(F)F)cc2)n1`, the concentration for half-maximal inhibition (IC50) is below 100 nM.

Values taken from ChEMBL document CHEMBL5728837, “Non-fused tricyclic compounds” (2021).
